According to PubChem BioAssay (NCI):
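Step 1: Grow cells in 96-well plates. Step 2: Expose to compound for 48 hours at 5 concentrations. Step 3: Interpolate endpoints linearly; if unreached, use highest concentration. At the TGI there is no net growth.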

Assays:
Assay in all cases: DTP human tumour cell line panel, 48 h
CAKI-1 renal = system: CAKI-1 renal
NCI-H23 lung = system: NCI-H23 lung
OVCAR-4 ovarian = system: OVCAR-4 ovarian
SNB-19 CNS = system: SNB-19 CNS
DMS 273 small cell lung = system: DMS 273 small cell lung
CCRF-CEM leukemia = system: CCRF-CEM leukemia
LOX IMVI melanoma = system: LOX IMVI melanoma
SN12C renal = system: SN12C renal
786-0 renal = system: 786-0 renal
OVCAR-5 ovarian = system: OVCAR-5 ovarian
SNB-75 CNS = system: SNB-75 CNS
HOP-92 NSCLC = system: HOP-92 NSCLC
EKVX NSCLC = system: EKVX NSCLC
NCI-H522 lung = system: NCI-H522 lung
TK-10 renal = system: TK-10 renal
HCT-116 colon = system: HCT-116 colon
RXF 393 renal = system: RXF 393 renal
IGROV1 ovarian = system: IGROV1 ovarian
K-562 leukemia = system: K-562 leukemia
OVCAR-3 ovarian = system: OVCAR-3 ovarian
OVCAR-8 ovarian = system: OVCAR-8 ovarian
NCI-H226 lung = system: NCI-H226 lung
ACHN renal = system: ACHN renal
SK-MEL-5 melanoma = system: SK-MEL-5 melanoma
SF-539 CNS = system: SF-539 CNS
A549 NSCLC = system: A549 NSCLC
SW-620 colon = system: SW-620 colon
U251 CNS = system: U251 CNS
MALME-3M melanoma = system: MALME-3M melanoma
DLD-1 colon = system: DLD-1 colon
SNB-78 CNS = system: SNB-78 CNS
HT29 colon = system: HT29 colon
SK-MEL-28 melanoma = system: SK-MEL-28 melanoma
SK-MEL-2 melanoma = system: SK-MEL-2 melanoma
SR leukemia = system: SR leukemia
HOP-62 NSCLC = system: HOP-62 NSCLC
M14 melanoma = system: M14 melanoma
SF-268 CNS = system: SF-268 CNS
SF-295 CNS = system: SF-295 CNS
MOLT-4 leukemia = system: MOLT-4 leukemia
NCI-H460 lung = system: NCI-H460 lung
M19-MEL melanoma = system: M19-MEL melanoma
KM12 colon = system: KM12 colon
DMS 114 small cell lung = system: DMS 114 small cell lung
COLO 205 colon = system: COLO 205 colon
SK-OV-3 ovarian = system: SK-OV-3 ovarian
UACC-62 melanoma = system: UACC-62 melanoma
XF 498 CNS = system: XF 498 CNS
UO-31 renal = system: UO-31 renal

Measured: TGI

O=c1c2cccnc2ncn1CCCN1CCCCC1
> 100 µM: all assays above
